Data on one substance can be found in patent publication US12729377B2, “RNAi agents and compositions for inhibiting expression of angiopoietin-like 3 (ANGPTL3), and methods of use” (Arrowhead Pharmaceuticals, Inc., priority 2017, dated 2026).

This data set concerns ANGPTL3 gene. In words: Example 14: RNAi agent and statin, serum triglycerides in LDLR knockout mice. Format: in vivo, LDLR KO mice. The text has this:
To evaluate the effect of co-administration of RNAi agents and statins in a disease model, LDLR KO mice were commercially obtained (The Jackson Laboratory). For three weeks prior to the onset of the study, forty-one (41) male 7 to 8 week old LDLR KO mice were placed on a high fat (“western”) diet (Teklad Custom Diets TD.88137), and remained on that diet throughout the duration of the study. Pre-dose serum samples were taken on study Day 1 after a four hour fast. The dosing regimen for the study is recited in the following Table 72:
• Mice were treated at 40 mg/kg for the first 11 days, then switched to 20 mg/kg thereafter.
The vehicle used for the oral gavage in the study was a 1:1 mixture of Ora-Plus®: Ora-Sweet® solution, which were acquired commercially. For the preparation of the atorvastatin oral gavage administrations, the respective desired dose of atorvastatin was first dissolved in sterile water (0.3 mL water per 1 mL of desired formulation) and vortexed until smooth, followed by the addition of a mixture of 1:1 Ora-Plus®: Ora-Sweet® solution (0.7 mL vehicle per 1 mL of desired formulation) and vortexed. On day 1 and for each day thereafter an oral gavage dose was administered for each of the Groups except for Group 2. On Day 23, Groups 1, 2, 3, and 4 received a single subcutaneous administration of 2.5 mg/kg dose ([…] solution) of an ANGPTL3 RNAi agent in D5W (dextrose in 5% water), or vehicle control (D5W) with no RNAi agent.
The RNAi agent tested (AD05488) included a modified sequence and an N-acetyl-galactosamine-containing targeting ligand conjugated to the 5′ terminal end of the sense strand. (See Tables 3, 4, and 5 for modified sequences and targeting ligand structures). The injections were performed between the skin and muscle (i.e. subcutaneous injections) into the loose skin over the neck and shoulder area. Serum was collected on days 8, 15, 22 (pre-RNAi agent injection), 29, 36, 43, and 50. LDLR KO mice were fasted for four hours prior to each collection.
ANGPTL3 protein levels in serum were measured by ELISA assay (R&D Systems), according to the manufacturer's recommendations. Among other biomarkers, triglycerides, total cholesterol, and low-density lipoprotein (LDL) in serum were measured on a Cobas® Integra 400 (Roche Diagnostics), according to the manufacturer's recommendations.
The ANGPTL3 protein levels, triglyceride levels, total cholesterol levels, HDL levels, and LDL levels for each animal were normalized. For normalization, respective levels of ANGPTL3 protein, TG, total cholesterol, or LDL for each animal at a time point was divided by the pre-treatment level of expression in that animal (in this case pre-dose levels on Day 1) to determine the ratio of expression “normalized to pre-treatment.” Data from the study set forth in this Example are shown in the following Tables 73-76: […]

In the oligonucleotide strings, read from the 5' end, every base follows the letter of its sugar. An asterisk marks phosphorothioate; unmarked linkages are phosphodiester. Other units and linkages are bracketed, terminal groups are in braces. A string of capitals states the bases alone. {NAG37} = tridentate N-acetyl-galactosamine targeting ligand, structure (NAG37)s; [invAb] = inverted abasic unit; m = 2'-O-methyl; f = 2'-fluoro

Turning to “AD05488: RNAi agent duplex: antisense AM07235-AS, sense AM07234-SS (antisense mU*fA*mC*fUmGfAmUfCmAfAmAfUmAfUmGfUmUfGmAfG*mC; sense {NAG37}*[invAb]*mGmCmUmCmAmAmCmAfUfAfUmUmUmGmAmUmCmAmGmUmA*[invAb])”, the “Avg TG normalized to pre-treatment” value reads like this: (Group 2: no gavage, 2.5 mg/kg AD05488 SC on day 23, Day 8 (pre-RNAi agent injection)) 0.988; (Group 2: no gavage, 2.5 mg/kg AD05488 SC on day 23, Day 15 (pre-RNAi agent injection)) 1.247; (Group 2: no gavage, 2.5 mg/kg AD05488 SC on day 23, Day 22 (pre-RNAi agent injection)) 1.524; (Group 2: no gavage, 2.5 mg/kg AD05488 SC on day 23, Day 29) 0.166; (Group 2: no gavage, 2.5 mg/kg AD05488 SC on day 23, Day 36) 0.125; (Group 2: no gavage, 2.5 mg/kg AD05488 SC on day 23, Day 43) 0.139. The “Avg TG normalized to pre-treatment” value reads like this: (Group 2: no gavage, 2.5 mg/kg AD05488 SC on day 23, Day 50) 0.153; (Group 3: 10 mg/kg daily oral gavage atorvastatin, 2.5 mg/kg AD05488 on day 23, Day 8 (pre-RNAi agent injection)) 0.613; (Group 3: 10 mg/kg daily oral gavage atorvastatin, 2.5 mg/kg AD05488 on day 23, Day 15 (pre-RNAi agent injection)) 0.436; (Group 3: 10 mg/kg daily oral gavage atorvastatin, 2.5 mg/kg AD05488 on day 23, Day 22 (pre-RNAi agent injection)) 0.614; (Group 3: 10 mg/kg daily oral gavage atorvastatin, 2.5 mg/kg AD05488 on day 23, Day 29) 0.072; (Group 3: 10 mg/kg daily oral gavage atorvastatin, 2.5 mg/kg AD05488 on day 23, Day 36) 0.058. Also, the “Avg TG normalized to pre-treatment” value came out at 0.076 (Group 3: 10 mg/kg daily oral gavage atorvastatin, 2.5 mg/kg AD05488 on day 23, Day 43); 0.065 (Group 3: 10 mg/kg daily oral gavage atorvastatin, 2.5 mg/kg AD05488 on day 23, Day 50); 0.567 (Group 4: 20 mg/kg* daily oral gavage atorvastatin (40 mg/kg first 11 days), 2.5 mg/kg AD05488 on day 23, Day 8 (pre-RNAi agent injection)); 0.526 (Group 4: 20 mg/kg* daily oral gavage atorvastatin (40 mg/kg first 11 days), 2.5 mg/kg AD05488 on day 23, Day 15 (pre-RNAi agent injection)); 0.748 (Group 4: 20 mg/kg* daily oral gavage atorvastatin (40 mg/kg first 11 days), 2.5 mg/kg AD05488 on day 23, Day 22 (pre-RNAi agent injection)); 0.071 (Group 4: 20 mg/kg* daily oral gavage atorvastatin (40 mg/kg first 11 days), 2.5 mg/kg AD05488 on day 23, Day 29). Further, the “Avg TG normalized to pre-treatment” value by setting is: (Group 4: 20 mg/kg* daily oral gavage atorvastatin (40 mg/kg first 11 days), 2.5 mg/kg AD05488 on day 23, Day 36) 0.058; (Group 4: 20 mg/kg* daily oral gavage atorvastatin (40 mg/kg first 11 days), 2.5 mg/kg AD05488 on day 23, Day 43) 0.089; (Group 4: 20 mg/kg* daily oral gavage atorvastatin (40 mg/kg first 11 days), 2.5 mg/kg AD05488 on day 23, Day 50) 0.082. Further, the “effects on lipid parameters” value (co-administration of atorvastatin (Groups 3 and 4), LDLR KO mice on high fat diet) is “additive effects”. Also, the “total reductions in triglycerides” value (co-administration of atorvastatin and RNAi agent (Groups 3 and 4), LDLR KO mice on high fat diet) is on record as ~ 95%.
